Test results reported in article PMC9502272, “A Metabolomics Approach for Predicting OATP1B-Type Transporter-Mediated Drug–Drug Interaction Liabilities” (Pharmaceutics, 2022).
Structures can show the parent of a compound that is named as a salt.

Biological target: T1, Oatp1b2 (Mus musculus, UniProt Q9JJL3)
T1 sequence (Q9JJL3 1-689): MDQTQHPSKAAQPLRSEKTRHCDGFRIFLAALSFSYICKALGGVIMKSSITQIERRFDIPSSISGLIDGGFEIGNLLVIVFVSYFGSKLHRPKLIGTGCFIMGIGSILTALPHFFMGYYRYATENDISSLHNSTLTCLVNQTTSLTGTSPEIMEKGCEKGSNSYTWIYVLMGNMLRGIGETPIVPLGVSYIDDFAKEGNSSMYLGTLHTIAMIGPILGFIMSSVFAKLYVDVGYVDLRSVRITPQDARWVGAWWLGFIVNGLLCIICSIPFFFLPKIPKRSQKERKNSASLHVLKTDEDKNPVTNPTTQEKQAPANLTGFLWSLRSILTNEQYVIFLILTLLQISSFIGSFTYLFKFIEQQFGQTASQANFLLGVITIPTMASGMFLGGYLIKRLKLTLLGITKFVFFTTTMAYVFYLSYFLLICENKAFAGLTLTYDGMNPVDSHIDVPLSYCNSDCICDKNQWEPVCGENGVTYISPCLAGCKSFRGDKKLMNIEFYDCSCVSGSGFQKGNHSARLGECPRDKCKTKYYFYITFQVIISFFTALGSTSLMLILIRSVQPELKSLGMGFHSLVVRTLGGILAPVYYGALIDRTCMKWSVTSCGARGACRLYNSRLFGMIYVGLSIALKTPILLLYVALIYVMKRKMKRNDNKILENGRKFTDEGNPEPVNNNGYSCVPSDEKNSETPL
Assay: Untargeted metabolomics of plasma from untreated wild-type and Oatp1b2(−/−) mice
Conditions: for Fold of Change KO/WT: plasma of untreated Oatp1b2-deficient (KO) vs wild-type (WT) mice, semi-quantitative, positive = higher in KO, n = 6 per group; for Mean value KO: plasma of untreated Oatp1b2-deficient mice; for Mean value KO / Mean value WT: raw area counts rescaled to median = 1; for Mean value WT: plasma of untreated wild-type mice

Structure (SMILES) | Fold of Change KO/WT | Mean value KO | Mean value WT
CCCCCCC(=O)NCC(=O)O [heptanoyl glycine] | 1.52 | 1.32 | .868
O=S(=O)(O)Oc1ccc(O)cc1 [hydroquinone sulfate] | 1.55 | 1.32 | .849
C[C@H](CCC(=O)O)[C@H]1CC[C@H]2[C@@H]3C[C@H](O)[C@@H]4C[C@H](O)CC[C@]4(C)[C@H]3CC[C@]12C [hyodeoxycholate] | 14.7 | 3.94 | .269
NCCS(=O)O [hypotaurine] | 1.28 | 1.14 | .887
O=C1Cc2ccccc2N1 [indolin-2-one] | 1.51 | 1.20 | .797
CC(C)C(=O)O[C@H](CC(=O)[O-])C[N+](C)(C)C [isobutyrylcarnitine (C4)] | 1.40 | 1.15 | .817
C[C@H](CCC(=O)O)[C@H]1CC[C@H]2[C@@H]3C[C@H](O)[C@@H]4C[C@@H](O)CC[C@]4(C)[C@H]3CC[C@]12C [isohyodeoxycholate] | 2.46 | 0.940 | .382
CCCCC/C=C\C/C=C\CCCCCCCC(=O)O[C@H](CC(=O)[O-])C[N+](C)(C)C [linoleoylcarnitine (C18:2)] | 1.62 | 1.36 | .838
CCCCCCCCCCCCCCCCC(=O)OC(CC(=O)[O-])C[N+](C)(C)C (stereo not drawn) [margaroylcarnitine (C17)] | 1.59 | 1.21 | .764
COP(=O)(O)O [methylphosphate] | 1.27 | 1.08 | .848
CC(O)(CCO)CC(=O)O (stereo not drawn) [mevalonate] | 1.24 | 1.15 | .925
CCCCCCCC(=O)O[C@H](CC(=O)O)C[N+](C)(C)C [octanoylcarnitine (C8)] | 1.62 | 1.47 | .910
CCCCCCCC/C=C\CCCCCCCC(=O)O[C@H](CC(=O)[O-])C[N+](C)(C)C [oleoylcarnitine (C18:1)] | 1.56 | 1.40 | .900
Cc1ccc(O[C@@H]2O[C@H](C(=O)O)[C@@H](O)[C@H](O)[C@H]2O)cc1 [p-cresol glucuronide] | 11.8 | 5.92 | .503
Cc1ccc(OS(=O)(=O)O)cc1 [p-cresol sulfate] | 9.29 | 4.66 | .501
CCCCCCC=CCCCCCCCC(=O)OC(CC(=O)[O-])C[N+](C)(C)C (stereo not drawn) [palmitoleoylcarnitine (C16:1)] | 1.63 | 1.54 | .943
CCCCCCCCCCCCCCC(=O)O[C@H](CC(=O)[O-])C[N+](C)(C)C [pentadecanoylcarnitine (C15)] | 1.77 | 1.28 | .723
O=C(O)[C@H]1O[C@@H](Oc2ccccc2)[C@H](O)[C@@H](O)[C@@H]1O [phenol glucuronide] | 1.87 | 1.28 | .684
O=S(=O)(O)Oc1ccccc1 [phenol sulfate] | 1.40 | 1.23 | .879
O=C(O)C1CCCCN1 (stereo not drawn) [pipecolate] | 1.12 | 1.05 | .938
Cc1ncc(CO)c(C=O)c1O [pyridoxal] | 1.47 | 1.28 | .868
Cc1ncc(CO)c(CN)c1O [pyridoxamine] | 1.77 | 1.42 | .805
Cc1ncc(CO)c(C(=O)O)c1O [pyridoxate] | 1.34 | 1.21 | .902
C[C@H](CCC(=O)NCCS(=O)(=O)O)[C@H]1CC[C@H]2[C@@H]3CC[C@@H]4C[C@H](O)CC[C@]4(C)[C@H]3C[C@H](O)[C@]12C [taurodeoxycholate] | 3.45 | 1.82 | .528
C[C@H](CCC(=O)NCCS(=O)(=O)O)[C@H]1CC[C@H]2[C@@H]3CC[C@@H]4C[C@H](OS(=O)(=O)O)CC[C@]4(C)[C@H]3CC[C@]12C [taurolithocholate 3-sulfate] | 2.25 | 0.960 | .425
O=C(O)CCCCCCCCCC(=O)O [undecanedioate (C11-DC)] | 3.00 | 1.96 | .654

Further lines, results first:

Fold of Change KO/WT | Mean value KO | Mean value WT | Structure (SMILES)
2.10 | 1.57 | .749 | O=C(O)CCCCCCCCCCCCCCC(=O)O [hexadecanedioate (C16-DC)]
1.59 | 1.40 | .880 | CCCCCC(=O)NCC(=O)O [hexanoylglycine]
1.19 | 1.09 | .915 | C[N+]1(C)CCCC[C@H]1C(=O)[O-] [homostachydrine]
5.64 | 1.41 | .251 | C[C@H](CCC(=O)O)[C@H]1CC[C@H]2[C@@H]3[C@H](O)[C@H](O)[C@@H]4C[C@H](O)CC[C@]4(C)[C@H]3CC[C@]12C [hyocholate]
2.07 | 1.49 | .719 | OC[C@H]1O[C@@H](n2cnc3c(O)ncnc32)[C@H](O)[C@@H]1O [inosine]
1.57 | 1.28 | .815 | CC(C)CCC(=O)NCC(=O)O [isocaproylglycine]
1.22 | 1.08 | .884 | O=C1CC(C(=O)O)C(C(=O)O)O1 (stereo not drawn) [isocitric lactone]
1.36 | 1.29 | .945 | CCCCC/C=C\C/C=C\CCCCCCCC(N)=O [linoleamide (18:2n6)]
1.45 | 1.19 | .826 | CCCCCCCCCCCCCCCCC(N)=O [margaramide (17:0)]
1.39 | 1.26 | .904 | CCCCCCCCCCCCCC(=O)O[C@H](CC(=O)[O-])C[N+](C)(C)C [myristoylcarnitine (C14)]
1.44 | 1.30 | .902 | O=C(O)CCCCCCCCCCCCCCCCCC(=O)O [nonadecanedioate (C19-DC)]
1.38 | 1.27 | .916 | O=C(O)CCCCCCCCCCCCCCCCC(=O)O [octadecanedioate (C18-DC)]
1.16 | 1.00 | .860 | C[N+](C)(C)CC(CC(=O)[O-])OC(=O)CCCCCCCCCCCCCCCCC(=O)O (stereo not drawn) [octadecanedioylcarnitine (C18-DC)]
1.38 | 1.22 | .886 | CCCCCCCC/C=C\CCCCCCCC(N)=O [oleamide]
1.40 | 1.18 | .840 | CCCCCCCCCCCCCCCC(N)=O [palmitamide (16:0)]
1.46 | 1.24 | .850 | O=C(O)CC[C@H](NC(=O)Cc1ccccc1)C(=O)O [phenylacetylglutamate]
2.41 | 1.58 | .656 | O=C(O)CNC(=O)CCc1ccccc1 [phenylpropionylglycine]
1.44 | 1.20 | .833 | O=C(O)CCCCCCCCC(=O)O [sebacate (C10-DC)]
1.49 | 1.19 | .800 | CCCCCCCCCCCCCCCCCC(N)=O [stearamide (18:0)]
1.58 | 1.10 | .694 | C[C@H](CCC(=O)NCCS(=O)(=O)O)[C@H]1CC[C@H]2[C@@H]3CC[C@@H]4C[C@H](OS(=O)(=O)O)CC[C@]4(C)[C@H]3C[C@H](O)[C@]12C [taurodeoxycholic acid 3-sulfate]
4.27 | 1.96 | .459 | O=C(O)CCCCCCCCCCCCC(=O)O [tetradecanedioate (C14-DC)]
1.38 | 1.22 | .883 | C/C=C(\C)C(=O)NCC(=O)O [tigloylglycine]
